Test results taken from patent US20220389230A1, “BLAST FURNACE SLAG-TYPE PAINT” (FUKKO CO., LTD., priority 2019, published 2022).
Where two headings read alike, the source gives them in different places.

Assays:
[1] = Corrosiveness of alkaline substances to aluminum, change in appearance after 24 hours
Procedure: For comparison with the aqueous solution shown in Table 3, a slurry liquid obtained by adding 10 parts by weight of water to 20 parts by weight of ordinary Portland cement was allowed to contact with an aluminum plate (A1050) not subjected to the surface treatment and an aluminum sash frame coated with a sulfuric acid anodized film at the spot, and a change in the appearance after 24 hours was observed.

[2] = Table 2; cited from earlier work
[3] = Confirmation of safety: presence or absence of danger (Table 2)
Procedure: The presence or absence of danger was evaluated based on the concentration adjustment work in Table 1 and whether or not it was subject to legal regulations.

[4] = pH and heat of dissolution of aqueous solutions that may give an alkaline stimulus (Table 1)

| Compound | pH of aqueous solution [1] | Existance of legal regulation [2] | Judging danger to human body [3] | odor [3] | Generation of heat of dissolution [4] | Generation of heat of dissolution ([4]; Table 1, concentration adjustment of the aqueous solution) |
| --- | --- | --- | --- | --- | --- | --- |
| [Ca+2].[OH-].[OH-] [Calcium hydroxide] | 12 | No regulation | The risk is small | Odorless |  |  |
| O=C([O-])[O-].[K+].[K+] [Potassium carbonate] | 11 | No regulation | The risk is small | Odorless | Medium |  |
| [K+].[OH-] [Potassium hydroxide] | 15 | Drastic medicine | Very dangerous | Odorless | Large |  |
| O=C([O-])CC(O)(CC(=O)[O-])C(=O)[O-].[Na+].[Na+].[Na+] [Sodium citrate] |  | No regulation | The risk is small | Odorless |  |  |
| [Na+].[OH-] [Sodium hydroxide] |  | Drastic medicine |  |  |  | Large |
| N [ammonia] |  | Drastic medicine | Very dangerous | Pungent |  |  |
| O=C([O-])[O-].[Na+].[Na+] [sodium carbonate] | 12 | No regulation | The risk is small | Odorless | Medium |  |
